Patent US12404519B2 (priority 2013, dated 2025)
pIC50: −log10 of the molar value. Where a SMILES comes first, the peptide text is derived from it.

Columns and labels:
pathogenic fungi = conditions: pure protein added to in vitro antifungal assay medium; cited from earlier work
[1] = test system: Fusarium graminearum PH-1

Compound | Growth inhibition of pathogenic fungi in vitro (pathogenic fungi) | IC100 (concentration required for 100% inhibition of fungal growth) [1] | pIC50 ([1]; 24 h)
Rs-AFP2: small cysteine-rich protein isolated from radish seed (QKLCQRPSGTWSGVCGNNNACKNQCIRLEKARHGSCNYVFPAHKCICYFPC; UniProt P30230 30-80, looked up) | inhibited the growth of many pathogenic fungi |  | 
C[C@H](NC(=O)CN)C(=O)N[C@@H](CS)C(=O)N[C@@H](Cc1c[nH]cn1)C(=O)N[C@@H](CCCNC(=N)N)C(=O)N[C@@H](CCC(N)=O)C(=O)NCC(=O)N[C@@H](Cc1ccccc1)C(=O)NCC(=O)N[C@@H](Cc1ccccc1)C(=O)N[C@@H](C)C(=O)N[C@@H](CS)C(=O)N[C@@H](Cc1ccccc1)C(=O)N[C@@H](CS)C(=O)N[C@@H](Cc1ccc(O)cc1)C(=O)N[C@@H](CCCCN)C(=O)N[C@@H](CCCCN)C(=O)N[C@@H](CS)C(=O)O [GMA-5C, GACHRQGFGFACFCYKKC] (H-GACHRQGFGFACFCYKKC-OH; N-terminus and C-terminus assumed) |  | about 24 μM | 4.92 to 5.22
Rs-AFP1: small cysteine-rich protein isolated from radish seed (QKLCERPSGTWSGVCGNNNACKNQCINLEKARHGSCNYVFPAHKCICYFPC; UniProt P69241 30-80, looked up) | inhibited the growth of many pathogenic fungi |  | 
